The results in this text go back to patent US20160151505A1 (KONINKLIJKE PHILIPS N.V., priority 2011, published 2016).

A word on the half-life: it is the time needed for the level to fall by half in the phase considered.

A value given as a limit tells only on which side of the number the result lay.

The nature of series [1]: Reactivity of trans-cyclooctene derivatives: competition experiment. As to conditions: reference trans-cyclooct-4-ene-1-ol (axial isomer). As for the experimental part:
A competition experiment was performed to determine the reactivity ratio of a specific trans-cyclooctene derivative and trans-cyclooct-4-ene-1-ol (axial isomer) (that was chosen as the reference), in the inverse-electron demand Diels-Alder reaction with bis(2-pyridyl)-1,2,4,5-tetrazine.
This mixture was diluted with water (0.45 mL). Subsequently, a solution of bis(2-pyridyl)-1,2,4,5-tetrazine (6.25×10^−8 mol) in a mixture of acetonitrile (0.05 mL) and water (0.45 mL) was slowly added while stirring vigorously. After addition, the mixture was stirred for an additional 5 min. The conversion of both trans-cyclooctene derivatives was determined by HPLC-MS/PDA analysis, and from these conversions, the reactivity ratio (R=k2,TCO/k2,Ref) of the specific trans-cyclooctene derivative was calculated using the mathematical procedure from Ingold and Shaw (J. Chem. Soc., 1927, 2918-2926).

The nature of series [2]: Stability of trans-cyclooctene derivatives in PBS. The settings on record: PBS buffer.
Description: 10 μL of a solution of the specific trans-cyclooctene derivative in dioxane (25 mM) was diluted with PBS buffer (3 mL), and this solution was stored at 20° C. in the dark.
The fate of the TCO compound was monitored by HPLC-MS analysis, and an estimation of the half-life time was made based on the release of the model prodrug.

Take `OC1CC/C=C/CCC1` (stereo not drawn) [axial isomer, trans-cyclooct-4-ene-1-ol, reference compound]: in series [1], the “reactivity ratio** (R = k2,TCO/k2,Ref)” value came out at 1. Besides, the half-life at 83 µM in series [2] was above 72 h.
